# Experiments:
# [1] = test system: Human primary dermal fibroblasts (HDFa); assay: NAD measurement in dermal fibroblasts treated with NR chloride (ADPR cyclase enzymatic assay, absorbance 405 nm); format: cell-based; settings: for NAD levels: FIG. 16
# Method: Human primary dermal fibroblasts derived from adult human skins (HDFa, Life technologies, Grand Island, NY, Passage 2-4) were grown in Medium 106 (Life Technologies) supplemented with Low Serum Growth Supplement (LSGS) (Life Technologies) and seeded in 12-well plates with density at 2×10^5 cells per well and 1 ml of culture medium in each well.
# Stock solution of NR chloride (MW: 322.742, GSK3002633B) was prepared freshly in water at 100 mM. Cells were treated with NR chloride at different concentrations as shown in […] for 6 and 24 hrs, washed twice with PBS containing 5 mM EDTA, and then subject to Nicotinamide adenine dinucleotide (NAD) measurement. In brief, acetonitrile (ACN) lysis buffer (Ammonium Acetate (50 mM) and 90% acetonitrile) was added to each well (200 μl/well) to lyse the cells at RT for 5-10 mins by gently rotating on a culture plate shaker at a low speed. Enzyme master mix (300 μM of 5-Amino-(3,4′-bipyridin)-6(1H)-one (Inamrinone) (Sigma-Aldrich), a substrate for ADP ribosyl cyclase (ADPR cyclase)) and 30 nM ADPR Cyclase (Sigma, St. Louis, Mont.), in 75 mM HEPES pH7 buffer (Life Technologies)) was added to the lysed cells (400 μl of enzyme master mix/well). Enzymatic reaction was incubated at RT for ˜30 min. At the end of incubation, the supernatant (200 μl) of the reaction solution from each well was transferred to each well of a 96-well plate and absorbance was read twice in the 96-well plate at 405 nm using a plate reader (Spectra Maxplus, Molecular Devices, Sunnyvale, Calif.). A mixture of enzyme master mix and ACN extraction solution at 2:1 ratio was used as a blank reference.
# Isolated, chemically-pure NAD (Sigma) was used as a positive control. Other NAD assays are known in the art or otherwise publically available as a kit (see, e.g., Neubert, D., et al., Biochim. Biophys. Acta, 1964, 92, 610-12; Emanuelli, M., et al. J. Chromatog. B. 676, 13-18; and NAD/NADH Cell-Based Assay Kit by Cayman Chemical).
# [2] = Thermal decomposition of the crystals on heating under vacuum, confirmed by 1H NMR in D2O; format: physicochemical
# Method: The crystalline nature of this product was confirmed by optical microscopy using polarized light (FIG. 5). A 50 mg portion of this material was dried under high vacuum (<1.0 mm Hg) and at ambient temperature for 48 h. […] The material completely decomposed, without melting, within 17 min at 100° C. at <1 mm Hg. (Decomposition was confirmed by ^1H NMR spectral analysis in D2O solution after the heating period.) In contrast, a sample could be heated at 80° C. for 1 h and <1 mm Hg with <3% decomposition. ^1H NMR (400 MHz, D2O) δ 9.63 (s, 1H, H2), 9.31 (d, 1H, J=5.9 Hz, H4), 9.01 (dd, 1H, J=8.0 Hz, 1.0 Hz, H6), 8.32 (dd, 1H, J=8.0 Hz, 5.9 Hz, H5), 6.29 (d, 1H, J=3.9 Hz, H1′), 4.55 (t, 1H, J=3.9 Hz, H2′), 4.50 (m, 1H, H4′), 4.38 (t, 1H, J=3.9 Hz, H3′), 4.08 (dd, 1H, J=12, 3 Hz, H5′), 3.93 (dd, 1H, J=12, 3, Hz, H5′); ^13C NMR (75 MHz, D2O) δ 165.8 (C7), 145.6 (C6), 142.6 (C4), 140.4 (C2), 133.9 (C3), 128.4 (C5), 99.9 (C1′), 87.6 (C4′), 77.4 (C2′), 69.7 (C3′), 60.1 (C5′); IR (cm−1) 3299, 1700, 1398, 1080, 982, 887, 795 (see FIG. 8). XRPD (degrees) 14.2, 17.1, 20.5, 22.7, 23.8, 25.1, 26.8, 34.2 X-ray powder diffraction (XRPD) data are included as FIG. 6. The XRPD serves as a fingerprint for the crystalline form of nicotinamide riboside chloride with only trace residual solvents present.
# [3] = Behaviour of the solid on filtration under ambient conditions / ambient humidity; format: physicochemical
# Method: Crude product (351 g) from the above example was dissolved in 1.5 L of methanol, then 625 mL of methanol was removed in vacuo. For the initial crystallization experiments, this solution was placed in a glass round-bottomed flask, and the side was scratched with a metal spatula. The solution was then stored at −20° C. for several weeks until a crystalline precipitate formed. […] For subsequent preparations, the methanol solution was seeded with 100 mg of crystalline nicotinamide riboside chloride, and the solution was allowed to stand at ambient temperature while the product crystallized over the course of several hours. Using a Buchner funnel filtration apparatus, the crystals were filtered and washed with 200 mL of ice-cold methanol. The product was dried on the filter, open to the air, for 1.5 h, then under high vacuum (<[…]) at ambient temperature for 18 h. The yield was 157 g (34%) of a light yellow solid. The product contained 0.9 molar equivalents of methanol by ^1H NMR integration (i.e., nicotinamide riboside chloride ●0.9 methanol crystals). This residual methanol could not be removed by additional drying at <40° C. […]
smiles,measurement,setting,value
"NC(=O)c1ccc[n+]([C@@H]2O[C@H](CO)[C@@H](O)[C@H]2O)c1.[Cl-] [NR chloride, nicotinamide riboside chloride]",NAD levels,[1]; 6 hrs treatment,dose-dependently increased NAD levels
same,NAD levels,[1]; 24 hrs treatment,dose-dependently increased NAD levels
same,intracellular NAD levels,"[1]; FIG. 16, time not given",dose-dependently increases intracellular NAD levels
"NC(=O)c1ccc[n+]([C@@H]2O[C@H](CO)[C@@H](O)[C@H]2O)c1.[Cl-] [Example 4, nicotinamide riboside chloride]","time to complete decomposition, without melting",[2]; 100° C. at <1 mm Hg,≤ 17 min
same,resistance to decomposition upon heating,[2]; compared with amorphous forms of nicotinamide riboside,far more resistant to decomposition upon heating than amorphous forms
same,decomposition,[2]; heated at 80° C. for 1 h and <1 mm Hg,< 3%
"NC(=O)c1ccc[n+]([C@@H]2O[C@H](CO)[C@@H](O)[C@H]2O)c1.[Cl-] [Example 3, 3-carbamoyl-1-((2R,3R,4S,5R)-3,4-dihydroxy-5-(hydroxymethyl)tetrahydrofuran-2-yl)pyridin-1-ium chloride]",behaviour on the filter under ambient conditions,[3],could be filtered under ambient conditions while remaining free-flowing

# Reference: US10316054B2, “Preparation and use of crystalline beta-D-nicotinamide riboside” (GlaxoSmithKline Intellectual Property (No. 2) Limited, priority 2014, dated 2019)
